Reference: PMC5896746 (ACS chemical biology, 2017)
Numbering of substitutions follows the chain as printed.

Key:
[1] = target: T1, hPKG Iβ 1–351 wt (Homo sapiens, UniProt Q13976); assay: Competitive SPR
T1 sequence (Q13976 1-351 isoform Q13976-2): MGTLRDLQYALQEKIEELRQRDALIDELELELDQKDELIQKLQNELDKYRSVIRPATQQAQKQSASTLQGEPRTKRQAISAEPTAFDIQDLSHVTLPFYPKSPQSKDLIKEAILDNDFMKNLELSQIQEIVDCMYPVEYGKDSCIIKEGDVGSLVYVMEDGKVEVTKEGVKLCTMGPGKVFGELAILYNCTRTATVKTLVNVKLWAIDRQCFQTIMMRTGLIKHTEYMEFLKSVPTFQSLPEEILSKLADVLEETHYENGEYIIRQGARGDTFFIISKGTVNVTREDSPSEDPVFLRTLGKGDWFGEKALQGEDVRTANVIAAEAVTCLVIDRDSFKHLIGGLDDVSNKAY

[2] = test system: PKG Iβ; settings: read-out: Activation constant (previous activation data); cited from earlier work
[3] = test system: PKG I; settings: PKG I preincubated with [3H]cGMP, cited from earlier work
[4] = target: T2, hPKG II 1–762 (Homo sapiens, UniProt Q13237); assay: Microfluidic mobility-shift kinase activation assay, PKG II; settings: for Activation constant Ka ± SEM: full-length PKG II, microfluidic mobility shift assay; for Isotype selectivity in activating, PKG II: selective in activating PKG II
T2 sequence (Q13237 1-762): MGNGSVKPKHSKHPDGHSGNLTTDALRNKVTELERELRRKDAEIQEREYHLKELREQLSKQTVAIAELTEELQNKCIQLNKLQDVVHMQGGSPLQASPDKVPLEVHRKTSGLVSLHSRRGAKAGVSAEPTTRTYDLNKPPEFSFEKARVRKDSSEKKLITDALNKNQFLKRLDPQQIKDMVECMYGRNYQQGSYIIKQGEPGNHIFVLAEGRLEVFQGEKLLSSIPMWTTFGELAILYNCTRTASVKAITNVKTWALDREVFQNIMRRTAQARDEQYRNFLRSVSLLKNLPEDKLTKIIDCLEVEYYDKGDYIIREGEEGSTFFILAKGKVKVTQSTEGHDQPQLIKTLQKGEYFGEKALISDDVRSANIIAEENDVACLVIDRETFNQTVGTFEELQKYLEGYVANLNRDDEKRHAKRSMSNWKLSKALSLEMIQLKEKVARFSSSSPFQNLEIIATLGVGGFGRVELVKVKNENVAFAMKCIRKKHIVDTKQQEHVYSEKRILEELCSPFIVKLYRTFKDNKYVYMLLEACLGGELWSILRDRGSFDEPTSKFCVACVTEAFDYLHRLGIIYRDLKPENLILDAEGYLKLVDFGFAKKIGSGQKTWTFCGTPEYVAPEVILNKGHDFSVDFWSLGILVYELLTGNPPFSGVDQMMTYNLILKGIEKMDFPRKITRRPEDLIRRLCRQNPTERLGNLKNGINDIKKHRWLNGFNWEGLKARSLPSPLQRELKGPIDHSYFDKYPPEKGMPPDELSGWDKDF

[5] = target: T3, hPKG Iβ 5–676 (Homo sapiens, UniProt Q13976); assay: Microfluidic mobility-shift kinase activation assay, PKG Iβ; settings: for Activation constant Ka ± SEM: full-length PKG Iβ, microfluidic mobility shift assay
T3 sequence (Q13976 5-686 isoform Q13976-2): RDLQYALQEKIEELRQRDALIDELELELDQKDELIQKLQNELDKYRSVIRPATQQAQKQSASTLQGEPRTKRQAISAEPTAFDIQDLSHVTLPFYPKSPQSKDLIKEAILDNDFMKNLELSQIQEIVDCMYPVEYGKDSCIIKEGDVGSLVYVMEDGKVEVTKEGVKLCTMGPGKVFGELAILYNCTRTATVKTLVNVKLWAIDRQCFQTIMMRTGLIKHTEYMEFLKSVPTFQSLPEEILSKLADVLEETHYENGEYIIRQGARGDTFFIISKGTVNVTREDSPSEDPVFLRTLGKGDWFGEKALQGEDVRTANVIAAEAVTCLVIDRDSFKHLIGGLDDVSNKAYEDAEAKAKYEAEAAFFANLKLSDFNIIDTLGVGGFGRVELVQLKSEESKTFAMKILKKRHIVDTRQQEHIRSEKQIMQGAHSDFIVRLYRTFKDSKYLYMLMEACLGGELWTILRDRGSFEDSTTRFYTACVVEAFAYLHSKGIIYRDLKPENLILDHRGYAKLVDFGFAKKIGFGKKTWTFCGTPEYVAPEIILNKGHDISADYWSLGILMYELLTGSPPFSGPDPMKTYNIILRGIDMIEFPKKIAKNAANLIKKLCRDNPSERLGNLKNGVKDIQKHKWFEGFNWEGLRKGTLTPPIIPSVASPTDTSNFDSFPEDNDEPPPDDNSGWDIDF

[6] = target: T4, hPKG Iβ 1–351 G182E (Homo sapiens, UniProt Q13976, G167E); assay: Competitive SPR, PKG Iβ R domain with site A disabled; type: binding; settings: own affinity data
T4 sequence (Q13976 1-351 isoform Q13976-2 G182E): T1 sequence (Q13976 1-351 isoform Q13976-2) with G182E

[7] = test system: PKG II; settings: read-out: Activation constant (previous activation data); cited from earlier work
[8] = target: T5, hPKG Iβ 1–351 G306E (Homo sapiens, UniProt Q13976, G291E); assay: Competitive SPR, PKG Iβ R domain with site B disabled; type: binding; settings: own affinity data
T5 sequence (Q13976 1-351 isoform Q13976-2 G306E): T1 sequence (Q13976 1-351 isoform Q13976-2) with G306E

[9] = target: T6, hPKG II 41–418 wt (Homo sapiens, UniProt Q13237); assay: Competitive SPR; type: binding; settings: for Isotype selectivity in binding, PKG II: selective in binding PKG II
T6 sequence (Q13237 41-418): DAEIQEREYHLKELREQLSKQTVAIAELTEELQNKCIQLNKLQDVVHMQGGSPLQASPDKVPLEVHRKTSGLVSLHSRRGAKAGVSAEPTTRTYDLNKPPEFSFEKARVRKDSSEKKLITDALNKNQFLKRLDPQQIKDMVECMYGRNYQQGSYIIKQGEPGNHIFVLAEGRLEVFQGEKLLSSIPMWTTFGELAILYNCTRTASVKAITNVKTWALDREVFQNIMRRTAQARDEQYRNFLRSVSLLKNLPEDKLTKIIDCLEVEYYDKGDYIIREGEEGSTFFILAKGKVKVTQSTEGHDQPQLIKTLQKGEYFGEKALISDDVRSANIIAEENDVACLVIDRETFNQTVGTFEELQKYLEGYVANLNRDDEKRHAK

[10] = target: T7, hPKG II 41–418 G356E (Homo sapiens, UniProt Q13237, G356E); assay: Competitive SPR, PKG II R domain with site B disabled; type: binding
T7 sequence (Q13237 41-418 G356E): T6 sequence (Q13237 41-418) with G316E

Row | Structure (SMILES) | Isotype selectivity in binding, PKG Iβ ([1]; selective in binding PKG Iβ) | Selectivity for PKG Iβ (EC50 compared to cGMP) ([1]; wild type R domain, SPR) | EC50 [2] | Binding to B site, fold stronger than cGMP ([3]; rapidly exchanging site) | Activation constant Ka ± SEM [4] | Activation constant Ka ± SEM [5] | Isotype selectivity in activating, PKG Iβ ([5]; selective in activating PKG Iβ) | Binding to B site, fold stronger than cGMP [6] | EC50 [7] | Binding to A site, fold stronger than cGMP [8] | Binding to slowly exchanging site (A site), fold stronger than cGMP [3] | Isotype selectivity in activating, PKG II [4] | Isotype selectivity in binding, PKG II [9] | Reduction of EC50 at A site of PKG II compared to cGMP [10] | Selectivity for PKG II (EC50 compared to cGMP) ([9]; wild type R domain, SPR)
1 | O=c1c2ncn([C@@H]3O[C@@H]4COP(=O)(O)O[C@H]4[C@H]3O)c2nc2[nH]c(-c3ccccc3)cn12 [PET-cGMP, β-phenyl-1,N2-ethenoguanosine 3′,5′-monophosphate] | 40–50 fold | ~ 40 fold | 0.02 µM | 10 fold | 225 ± 13 nM (3) | 18 ± 2 nM (3) | ~ 10 fold | over 50 fold | – | – | – | – | – | – | –
2 | Nc1nc2c(nc(Br)n2[C@@H]2O[C@@H]3COP(=O)(O)O[C@H]3[C@H]2O)c(=O)[nH]1 [8-Br-cGMP, 8-bromoguanosine 3′,5′-cyclic monophosphate] | – | – | – | – | – | 206 ± 13 nM (3) | – | – | 0.025 µM | over 2 fold | 3.4 fold | ~ 4 fold | ~ 10 fold | – | –
3 | Nc1nc2c(ncn2[C@@H]2O[C@@H]3COP(=O)(O)O[C@H]3[C@H]2O)c(=O)[nH]1 [cGMP, Cyclic GMP] | – | – | 0.25 µM | – | – | – | – | – | 0.04 to 0.36 µM | – | – | – | – | – | –
4 | Nc1nc2c(nc(Sc3ccc(Cl)cc3)n2[C@@H]2O[C@@H]3COP(=O)(O)O[C@H]3[C@H]2O)c(=O)[nH]1 [8-pCPT-cGMP, 8-(4-chlorophenylthio)guanosine-3′-5′-cyclic monophosphate] | – | – | 0.44 µM | – | 22 ± 3 nM (4) | 249 ± 17 nM (3) | – | – | – | – | – | ~ 10 fold | 40–50 fold | > 50 fold | ~ 19 fold
